“Also recorded” adds a separate entry of the source.
What was measured:
[1] = test system: c-GMP in slices of thoracic aorta of rats; experiment: Cyclic-GMP measurement in aortic rat tissue (radioimmunoassay); format: cell-based; settings: for levels of cGMP as compared with GTN: isolated rat aorta, FIGS. 25, 27, 33; for cGMP Post-infusion: rat aorta, post-infusion (repeated treatment)
Experimental: GTN (10^−6 M) was added to the chamber and, 1 minute after exposure to the drug, rings (usually 3-5) were taken, wrapped with aluminum foil and immediately frozen in liquid nitrogen for storage. Control sample group was treated with the vehicle solution only. At the time of analysis, rings were thawed, blotted over a dry gauzed and weighted. A known weight of tissue was homogenized in 2 ml ice-cold modified Hank's balanced salt solution containing (in gram/liter) NaCl 8; KCl 0.4; glucose 1; KH2PO4 0.06; Na2HPO4 0.047; Phenol red 0.017 and further containing 25 mM EDTA (disodium salt). The homogenate was centrifuged at 4000 g (force units) for 10 minutes at 2-4° C. and the supernatant was thereafter transferred into fresh pre-cooled test tube containing 1 ml of acetonitrile. The tubes were vortex mixed for a few seconds and subsequently centrifuged at 4000 g for 5 minutes at 2-4° C., to remove the precipitated protein. Each supernatant was transferred into a clean test tube and evaporated to dryness under a stream of nitrogen at 55° C. The dry residue was reconstituted with 10 volumes of Tris-EDTA buffer pH 7.5 (0.05 M Tris containing 4 mM EDTA). Aliquots of 100 μl of the reconstituted solution in duplicate were used for c-GMP measurements using Amersham RIA kit, as is described in Haj-Yehia & Benet [Pharmacology, 1995, 273, 1, pp. 94-100]. Standard curves were plotted with six concentrations (0, 0.5, 1, 2, 4 and 8 pmoles of c-GMP per tube).
The NO-tolerance effect of GTN and NO-donor compounds according to the present invention was measured by following the production of c-GMP in slices of thoracic aorta of rats. Thus, the production of c-GMP was measured as described in the methods section above for the reference NO-donor compound GTN, and for the NO-donors of the present invention Pet-2, Pet-3, Pet-7, Pet-8, Pet-10, Pet-12, Pet-24, Pet-59, Pet-147, Pet-149, Pet-152, Pet-154 and Pet-155.

isolated rat aorta [2] = experiment: In vitro vasorelaxation, cumulative concentration-response curves on rat aortic rings contracted with epinephrine; format: cell-based; settings: isolated rat aorta pre-treated with 1 μM epinephrine
Excerpt: Male Sprague Dawley rats were anaesthetized using intraperitoneal injection of ketamine and xylazine (50 and 10 milligram per kilogram, respectively) and the thoracic aorta, the large upper portion of the descending aorta, starting at the caudal border of the chest bone, was removed thereafter, while carefully removing the paraadventetial tissue surrounding the vessel. Aortae were cut into rings of 4-5 millimeters and mounted onto the tissue path. The path buffer (Krebs-bicrbonate) was constantly gassed with carbogen and maintained at 37° C. The rings were preloaded under 2 g tension and equilibrated for 90 minutes, while refreshing the buffer every 15 minutes. After stabilization, the rings were contracted with epinephrine (1 μM). Cumulative Concentration-Response Curves (CCRC) were measured for the vasorelaxing effect induced by adding various concentrations, ranging from 10^−10 M to 10^−5 M of Pet-2, Pet-3, Pet-7, Pet-8, Pet-12, Pet-24, Pet-43, Pet-59, Pet-147, Pet-152 and Pet-154, and glyceryltrinitrate (GTN), according to the procedure described in Feelich et al., Molecular Pharmacology, 56:243-253 (1999). The vehicle, which was used for this experiment was water:ethanol:propyleneglycol at proportional ratio of 1:1:1.
The vasorelaxing effect of the thiazole-derived NO-donors according to the present invention was measured on slices of thoracic aorta of rats contracted with epinephrine, as described hereinabove.
The obtained results for Pet-2, Pet-3, Pet-7, Pet-8, Pet-12, Pet-24, Pet-43, Pet-59, Pet-147, Pet-152 and Pet-154 are presented in FIGS. 2-14, and are summarized in Table 3 below.

[3] = test system: cGMP in thoracic aorta of rats treated in vivo; experiment: Induction of in vivo nitrate tolerance (16 hour infusion, then cGMP in isolated aorta); parameters: species or system rat; settings: rats infused in vivo 16 hours, aorta re-exposed to the compound
Experimental: Male Sprague Dawley rats (220 to 250 grams) were housed under constant temperature and humidity conditions. Light was maintained at a 12/12 light dark cycle. Except for 12 hours before the experiment, when food fasting was initiated, all rats had free access to standard rat pellet diet and tap water. The animals were anesthetized by intraperitoneal injection of ketamine and xylazine combination (50 and 10 milligram per kilogram, respectively). […] The catheters were filled with normal saline solution containing 1000 IU/ml of heparin and plugged with a metal pin. Catheters were externalized to the back of the neck region and secured by a polyester felt disk.
After implantation, the rats were individually housed until they regained their preoperative weight and appeared healthy (3 to 4 days post-operation). At this time point (day 0), an osmotic mini-pump (Alza Corp., Palo Alto, Calif.) delivering constant volume (10 μl/hour) of vehicle or drug was connected to one of the intravenous catheters.
For inducing tolerance to the tested NO-donor according to the present invention, the animals received 200 μg/hour of the tested compound for 16 hours (short-term-induced tolerance). A similar number of animals were processed by the same surgical procedure and received the vehicle alone (10 μl/hour of a solution consisting of 30% ethanol and 30% propylene glycol in sterile distilled water for injection).
At the end of the infusion periods used for the development of tolerance (16 hour), the rats were anesthetized as described above, the two catheters were externalized and the delivering catheters were disconnected from the mini-pump. The abdomen was opened by midline incision and the thoracic aorta were isolated, washed and cleaned from the surrounding tissues. Strips of the treated aortas were pooled in chambers containing Krebs-Hanseliet buffer (10 ml), and exposed to 1 μM of the tested NO-donor (final concentration) for 120 seconds. The tissues were quickly collected and frozen in liquid nitrogen for cGMP measurement, described hereinabove.

isolated rat aorta [4] = experiment: In vitro induction of tolerance to NO releasing compounds (vasorelaxation of pre-exposed aortic rings, incl. cross-tolerance); format: cell-based; settings: rat aorta pre-treated with epinephrine and then 0.44 mM of the compound
Experimental: Aortic rings were prepared as described hereinabove, and were exposed to 0.44 mM GTN (vehicle was water:ethanol:propyleneglycol at proportional ratio of 1:1:1) for 1 hour before CCRC construction, to thereby induce tolerance to nitroglycerine. At the end of the tolerance induction period, rings were thrice washed with the path buffer (Krebs-bicrbonate) every 15 minutes for the following hour and then CCRC for vasorelaxation on GTN-induced tolerance rings were constructed for GTN (pretreated versus untreated rings, FIG. 15), in order to verify the ability to induce and measure GTN tolerance induction in vitro
Attempted induction of tolerance to the NO-donating compounds of the present invention was performed under the same conditions as for GTN. Thus, in an exemplary experiment, rings were exposed to 0.44 mM solution of Pet-3 in the attempt to induce tolerance for Pet-3. CCRC were then measured for the vasorelaxing effect of Pet-3 on a group of rings which were pre-exposed to Pet-3 as to induce tolerance to Pet-3, and for an untreated control group. The above protocol was repeated with Pet-2, Pet-7, Pet-8, Pet-12, Pet-24, Pet-43, Pet-149 and Pet-152.
Cross-tolerance studies were conducted using the same technique described above for measuring vasorelaxation of aortic rings from rats. Two groups of aortic rings samples were pre-treated with GTN, then one group was measured for vasorelaxation by GTN and the second group for vasorelaxation by Pet-12, an exemplary NO-donor according to the present invention. For the opposite cross-tolerance studies, two groups of aortic rings samples were pre-treated with Pet-12, then one group was measured for vasorelaxation by GTN and the second group for vasorelaxation by Pet-12.

[5] = test system: anesthetized hypertensive Sprague-Dawley male rats; experiment: Hypotensive effects: mean arterial pressure after iv bolus in phenylephrine-treated rats; format: in vivo, rat; settings: rats pre-treated in vivo with phenylephrine; iv bolus 10-100 micrograms
Excerpt: These techniques were also used to detect tolerance induction by the NO-donors of the present invention and by GTN. For c-GMP levels and tolerance development, the rat's thoracic aorta was isolated after exposure to the tested compound in vivo, and measured as described above in the in vitro assays.
Mean arterial pressure (MAP) was monitored and determined during bolus infusion of Pet-2, Pet-3, Pet-7, Pet-8, Pet-12 and Pet-13. Briefly, polyethylene catheters (PE50) were inserted into the carotid artery and into the jugular vein of anesthetized hypertensive Sprague-Dawley male rats (200-300 grams). A blood pressure recorder was placed within the carotid artery. Phenylephrine (0.1 mg) was then injected and the mean arterial blood pressure (MABP) was monitored continuously until a stable baseline was reached. The hypotensive effects of intravenous (iv) bolus doses (0.1 mg of each tested compound) administered intravenously at the jugular vein in minimal volume of vehicle (0.2 ml per dose) were evaluated. Five minutes were allowed between each dose, during which the maximal decrease in MAP was recorded and a dose-response graph comparing the hypotensive effect of the compounds was constructed.

| SMILES | levels of cGMP as compared with GTN [1] | vasorelaxation effect as compared with glyceryltrinitrate (words) (isolated rat aorta [2]) | tolerance in vivo: cGMP level in aorta following repeated treatment [3] | cGMP Post-infusion [1] [pmol/g tissue] | tolerance induction after pre-treatment with the same compound (isolated rat aorta [4]) | vasorelaxation effect as compared with glyceryltrinitrate (isolated rat aorta [2]) [fold] | hypotensive / vasorelaxation effect on heightened mean arterial blood pressure [5] |
| --- | --- | --- | --- | --- | --- | --- | --- |
| Cc1nc(NC(=O)[C@@H](C)c2ccc(CC(C)C)cc2)sc1CCO[N+](=O)[O-] (stereo in doubt) [Pet-152, 2-(4-Isobutyl-phenyl)-N-[4-methyl-5-(2-nitrooxy-ethyl)-thiazol-2-yl]-propionamide] | increased levels of cGMP | superior vasorelaxation effect |  |  |  |  |  |
| CCc1nc(C)c(CCO[N+](=O)[O-])s1 [Pet-2, 2-Ethyl-4-methyl-5-(2-nitrooxy-ethyl)-thiazole] |  | superior vasorelaxation effect | absence of tolerance induction; also recorded: absence of tolerance effect; also recorded: remained substantially unchanged | 140 ± 13 |  |  |  |
| Cc1nc(C)c(CCO[N+](=O)[O-])s1 [Pet-3, 2,4-Dimethyl-5-(2-nitrooxy-ethyl)-thiazole] | increased levels of cGMP | superior vasorelaxation effect |  | 118 ± 10 | absence of tolerance induction |  |  |
| Cc1nc(N(C)C)sc1CCO[N+](=O)[O-] [Pet-7, Dimethyl-[4-methyl-5-(2-nitrooxy-ethyl)-thiazol-2-yl]-amine] | increased levels of cGMP | superior |  | 123 ± 12 | absence of tolerance induction | 10 | vasorelaxation effect |
| Cc1nc(-c2ccccc2)sc1CCO[N+](=O)[O-] [Pet-8, 4-Methyl-5-(2-nitrooxy-ethyl)-2-phenyl-thiazole] | increased levels of cGMP | superior vasorelaxation effect |  | 136 ± 12 |  |  |  |
| Cc1nc(N)sc1CCO[N+](=O)[O-] [Pet-10, 4-methyl-5-(2-nitrooxy-ethyl)-thiazole-2-ylamine] | increased levels of cGMP |  |  |  |  |  |  |
| Cc1nc(CCCCc2nc(C)c(CCO[N+](=O)[O-])s2)sc1CCO[N+](=O)[O-] [Pet-13] |  |  |  |  |  |  | vasorelaxation effect |
| CNc1cncc(-c2nc(C)c(CCO[N+](=O)[O-])s2)n1 [Pet-24, Methyl-{6-[4-methyl-5-(2-nitrooxy-ethyl)-thiazol-2-yl]-pyrazin-2-yl}-amine] | increased levels of cGMP |  |  | 112 ± 10 | absence of tolerance induction |  |  |
| Cc1nc(Nc2nc(C)c(CCO[N+](=O)[O-])s2)sc1CCO[N+](=O)[O-] [Pet-43, Bis-[4-methyl-5-(2-nitrooxy-ethyl)-thiazol-2-yl]-amine] |  | superior vasorelaxation effect |  |  | absence of tolerance induction |  |  |
| Cc1nc(-c2ccc(C(F)(F)F)cc2)sc1CCO[N+](=O)[O-] [Pet-59, 4-Methyl-5-(2-nitrooxy-ethyl)-2-(4-trifluoromethyl-phenyl)-thiazole] | increased levels of cGMP | superior vasorelaxation effect |  |  |  |  |  |
| CCNc1nc(C)c(CCO[N+](=O)[O-])s1 [Pet-147, Ethyl-[4-methyl-5-(2-nitrooxy-ethyl)-thiazol-2-yl]-amine] | increased levels of cGMP |  |  |  |  |  |  |
| Cc1nc(Nc2cccc3ccccc23)sc1CCO[N+](=O)[O-] [Pet-149, [4-Methyl-5-(2-nitrooxy-ethyl)-thiazol-2-yl]-naphthalen-1-yl-amine] | increased levels of cGMP | superior vasorelaxation effect |  | 115 ± 14 | absence of tolerance induction |  |  |
| Cc1nc(NC(=O)c2cccnc2)sc1CCO[N+](=O)[O-] [Pet-154, N-[4-methyl-5-(2-nitrooxy-ethyl)-thiazol-2-yl]-nicotinamide] | increased levels of cGMP |  |  |  |  |  |  |
| C=CCNc1nc(C)c(CCO[N+](=O)[O-])s1 [Pet-155, allyl-[4-methyl-5-(2-nitrooxy-ethyl)-thiazol-2-yl]-amine] | increased levels of cGMP | superior vasorelaxation effect |  |  |  |  |  |
